Assay results published in patent US12624044B2, “SMARCA degraders and uses thereof” (Kymera Therapeutics, Inc., priority 2019, dated 2026).

Experiments:
SMARCA4 = target: T1, SMARCA4 (Homo sapiens, UniProt P51532); experiment: SMARCA4 Western blot MV4-11 degradation; assay type: cell-based; settings: 24 h; for Dmax: MV4-11, MV4-11 cells, read-out: SMARCA4 WB MV411 degradation 24 h: Average Dmax %; for DC50: MV4-11 cells, read-out: SMARCA4 WB MV411 degradation 24 h: Average external-Abs DC50
T1 construct: SMARCA2 and SMARCA4 protein degradation in MV4-11 cells; endogenous in cells; host or cells: MV4-11
T1 sequence (P51532 whole entry): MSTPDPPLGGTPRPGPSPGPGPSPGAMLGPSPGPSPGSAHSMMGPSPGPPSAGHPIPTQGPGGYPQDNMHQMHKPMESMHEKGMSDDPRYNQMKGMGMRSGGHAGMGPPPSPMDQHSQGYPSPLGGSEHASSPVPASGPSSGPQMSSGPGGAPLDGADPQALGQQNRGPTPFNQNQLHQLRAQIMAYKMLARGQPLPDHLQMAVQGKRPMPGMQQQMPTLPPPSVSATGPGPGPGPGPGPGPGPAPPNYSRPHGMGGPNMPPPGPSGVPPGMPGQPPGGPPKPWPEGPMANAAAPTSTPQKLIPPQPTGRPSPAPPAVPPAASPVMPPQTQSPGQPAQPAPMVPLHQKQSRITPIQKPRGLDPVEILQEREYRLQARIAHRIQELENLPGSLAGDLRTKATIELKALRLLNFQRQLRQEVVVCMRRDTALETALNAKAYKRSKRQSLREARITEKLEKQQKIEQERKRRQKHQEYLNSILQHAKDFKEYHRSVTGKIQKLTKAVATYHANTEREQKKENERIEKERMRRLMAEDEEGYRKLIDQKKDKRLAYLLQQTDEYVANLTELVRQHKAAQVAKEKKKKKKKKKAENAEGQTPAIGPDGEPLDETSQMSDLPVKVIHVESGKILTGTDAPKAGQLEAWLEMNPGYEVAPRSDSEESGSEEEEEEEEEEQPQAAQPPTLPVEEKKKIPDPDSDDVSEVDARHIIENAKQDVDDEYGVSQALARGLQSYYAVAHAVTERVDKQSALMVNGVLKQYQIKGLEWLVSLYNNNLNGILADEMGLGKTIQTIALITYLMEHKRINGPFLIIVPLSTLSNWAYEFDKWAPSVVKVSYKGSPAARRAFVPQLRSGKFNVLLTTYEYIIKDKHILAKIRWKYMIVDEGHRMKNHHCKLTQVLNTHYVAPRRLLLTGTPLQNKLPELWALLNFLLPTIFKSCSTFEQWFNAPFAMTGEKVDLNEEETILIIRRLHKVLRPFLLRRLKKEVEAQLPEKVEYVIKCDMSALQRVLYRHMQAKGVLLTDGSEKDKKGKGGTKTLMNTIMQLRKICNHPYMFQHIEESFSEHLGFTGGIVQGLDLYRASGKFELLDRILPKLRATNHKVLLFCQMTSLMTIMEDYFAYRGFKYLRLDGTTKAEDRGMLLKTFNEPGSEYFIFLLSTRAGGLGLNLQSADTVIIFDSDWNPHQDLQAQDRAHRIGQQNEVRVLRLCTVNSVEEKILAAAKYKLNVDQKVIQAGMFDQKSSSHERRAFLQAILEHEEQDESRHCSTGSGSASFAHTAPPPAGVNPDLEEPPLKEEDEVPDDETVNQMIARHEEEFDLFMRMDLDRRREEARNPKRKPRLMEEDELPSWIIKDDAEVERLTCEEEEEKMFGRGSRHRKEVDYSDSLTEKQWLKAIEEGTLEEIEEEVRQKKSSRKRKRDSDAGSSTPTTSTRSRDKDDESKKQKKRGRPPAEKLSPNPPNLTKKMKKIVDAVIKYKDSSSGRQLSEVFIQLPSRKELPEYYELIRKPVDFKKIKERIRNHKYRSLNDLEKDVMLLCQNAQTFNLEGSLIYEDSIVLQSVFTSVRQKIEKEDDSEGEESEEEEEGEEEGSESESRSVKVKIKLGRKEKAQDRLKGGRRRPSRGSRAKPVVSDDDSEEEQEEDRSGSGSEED
Method in brief: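 MV4-11 cells treated with compound for 24 h, lysed in RIPA with protease/phosphatase inhibitors, and SMARCA2 and SMARCA4 (BRG1) levels assessed by Western blot with β-actin loading control and LI-COR fluorescent read-out. Maximal degradation (Dmax %) after 24 h binned into letter codes.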

SMARCA2 = SMARCA2 (Homo sapiens, UniProt P51531); experiment: MSD SMARCA2 degradation in A549 cell line; assay type: cell-based; settings: 24 h; for Dmax: A549, A549 cells; for DC50: A549 cells, read-out: SMARCA2 MSD A549 degradation 24 h: Average external-Abs DC50
Chain of SMARCA2 (P51531 whole entry): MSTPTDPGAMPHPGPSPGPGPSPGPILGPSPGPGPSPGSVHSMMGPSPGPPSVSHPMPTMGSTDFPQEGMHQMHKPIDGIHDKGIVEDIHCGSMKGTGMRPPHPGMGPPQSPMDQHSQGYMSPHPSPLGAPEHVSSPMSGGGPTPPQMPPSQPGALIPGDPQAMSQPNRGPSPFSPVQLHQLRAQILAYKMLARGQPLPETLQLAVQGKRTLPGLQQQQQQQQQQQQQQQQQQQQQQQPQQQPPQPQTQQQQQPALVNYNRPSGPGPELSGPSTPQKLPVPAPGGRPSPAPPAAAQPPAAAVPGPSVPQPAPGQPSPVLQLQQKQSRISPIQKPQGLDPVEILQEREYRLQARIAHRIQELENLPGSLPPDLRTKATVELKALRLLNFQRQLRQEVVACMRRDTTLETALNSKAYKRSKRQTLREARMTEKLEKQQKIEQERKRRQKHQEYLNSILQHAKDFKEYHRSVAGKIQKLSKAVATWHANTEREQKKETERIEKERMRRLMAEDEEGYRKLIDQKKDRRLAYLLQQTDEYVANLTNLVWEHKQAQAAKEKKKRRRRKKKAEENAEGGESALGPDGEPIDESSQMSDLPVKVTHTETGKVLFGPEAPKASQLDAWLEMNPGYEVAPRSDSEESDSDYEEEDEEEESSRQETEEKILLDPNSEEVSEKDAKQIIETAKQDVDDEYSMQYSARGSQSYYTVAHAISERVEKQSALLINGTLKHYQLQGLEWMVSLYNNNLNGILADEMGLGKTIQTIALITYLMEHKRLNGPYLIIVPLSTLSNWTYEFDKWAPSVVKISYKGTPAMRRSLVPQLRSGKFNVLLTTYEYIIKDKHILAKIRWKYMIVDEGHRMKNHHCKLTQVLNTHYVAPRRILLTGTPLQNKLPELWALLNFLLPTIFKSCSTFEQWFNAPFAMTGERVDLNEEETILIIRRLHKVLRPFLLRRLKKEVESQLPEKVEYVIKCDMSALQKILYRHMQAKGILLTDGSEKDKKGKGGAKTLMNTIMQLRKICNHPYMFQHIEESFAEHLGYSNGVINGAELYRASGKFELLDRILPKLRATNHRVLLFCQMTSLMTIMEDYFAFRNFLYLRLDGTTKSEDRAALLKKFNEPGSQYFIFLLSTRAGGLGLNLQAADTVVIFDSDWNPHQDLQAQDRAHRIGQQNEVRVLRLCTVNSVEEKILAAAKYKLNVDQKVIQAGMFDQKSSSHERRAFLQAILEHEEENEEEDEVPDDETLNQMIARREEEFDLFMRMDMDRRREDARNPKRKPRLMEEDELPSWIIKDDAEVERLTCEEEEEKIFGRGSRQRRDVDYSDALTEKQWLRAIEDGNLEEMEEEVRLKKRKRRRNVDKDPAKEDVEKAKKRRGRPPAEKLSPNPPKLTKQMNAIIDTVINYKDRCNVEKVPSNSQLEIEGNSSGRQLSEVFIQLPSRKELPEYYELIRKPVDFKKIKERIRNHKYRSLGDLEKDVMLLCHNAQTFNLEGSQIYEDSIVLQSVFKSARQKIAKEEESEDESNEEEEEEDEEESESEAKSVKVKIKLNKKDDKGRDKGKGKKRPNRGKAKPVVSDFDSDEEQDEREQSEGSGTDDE
Method in brief: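 A549 cells treated 24 h with compound at final 0.152-1000 nM (3-fold series, DMSO control). Lysates analyzed by MSD immunoassay using anti-SMARCA2/BRM detection and SULFO-TAG secondary antibodies; maximal degradation (Dmax %) reported as letter bins.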

Row | SMILES | Dmax (SMARCA4) | DC50 (SMARCA4) | Dmax (SMARCA2) | DC50 (SMARCA2)
1 | Cc1ncsc1-c1ccc(CNC(=O)[C@@H]2C[C@@H](O)CN2C(=O)[C@@H](NC(=O)C2CCN(C(=O)c3cnc(N4C5CCC4CN(c4cc(-c6ccccc6O)nnc4N)C5)nc3)CC2)C(C)(C)C)cc1 [I-342, 1-[2-[3-[3-amino-6-(2-hydroxyphenyl)pyridazin-4-yl]-3,8-diazabicyclo [3.2.1]octan-8-yl]pyrimidine-5-carbonyl]-N-[(1S)-1-[(2S,4R)-4-hydroxy-2-[[4-(4-methylthiazol-5-yl)phenyl]methylcarbamoyl]pyrrolidine-1-carbonyl]-2,2-dimethyl-propyl]piperidine-4-carboxamide] | 70 to 90% | 0.1 to 0.5 µM | < 50% | > 1 µM
2 | Cc1ncsc1-c1ccc(CNC(=O)[C@@H]2C[C@@H](O)CN2C(=O)[C@@H](NC(=O)CCCN2CCC(c3cnc(N4C5CCC4CN(c4cc(-c6ccccc6O)nnc4N)C5)nc3)CC2)C(C)(C)C)cc1 [I-382] | < 50% | > 1 µM | < 50% | > 1 µM
3 | Cc1ncsc1-c1ccc(CNC(=O)[C@@H]2C[C@@H](O)CN2C(=O)[C@@H](NC(=O)CC2CCC(c3cnc(N4C5CCC4CN(c4cc(-c6ccccc6O)nnc4N)C5)nc3)CC2)C(C)(C)C)cc1 (some centres unmarked) [I-502] | > 90% | < 0.1 µM | > 90% | < 0.1 µM
4 | Cc1ncsc1-c1ccc(CNC(=O)[C@@H]2C[C@@H](O)CN2C(=O)[C@@H](NC(=O)[C@H]2CC[C@H](N3CCC(c4cnc(N5C6CCC5CN(c5cc(-c7ccccc7O)nnc5N)C6)nc4)CC3)CC2)C(C)(C)C)cc1 [I-355] | 70 to 90% | 0.1 to 0.5 µM | > 90% | 0.1 to 0.5 µM
5 | Cc1ncsc1-c1ccc(CNC(=O)[C@@H]2C[C@@H](O)CN2C(=O)[C@@H](NC(=O)[C@H](C)N2CCC(c3cnc(N4C5CCC4CN(c4cc(-c6ccccc6O)nnc4N)C5)nc3)CC2)C(C)(C)C)cc1 [I-481] | > 90% | > 1 µM | < 50% | > 1 µM
6 | Nc1nnc(-c2ccccc2O)cc1-c1cnn(C2CCN([C@H]3CC[C@@H](CNc4ccc5c(c4)C(=O)N(C4CCC(=O)NC4=O)C5=O)CC3)CC2)c1 (some centres unmarked) [I-281, 5-((((1s,4s)-4-(4-(4-(3-amino-6-(2-hydroxyphenyl)pyridazin-4-yl)-1H-pyrazol-1-yl)piperidin-1-yl)cyclohexyl)methyl)amino)-2-(2,6-dioxopiperidin-3-yl)isoindoline-1,3-dione] | > 90% | < 0.1 µM | > 90% | < 0.1 µM
7 | Cc1ncsc1-c1ccc(CNC(=O)[C@@H]2C[C@@H](O)CN2C(=O)C(N(C)C(=O)C[C@H]2CC[C@H](N3CCC(c4cnc(N5C6CCC5CN(c5cc(-c7ccccc7O)nnc5N)C6)nc4)CC3)CC2)C(C)(C)C)cc1 (some centres unmarked) [I-388] | 70 to 90% | < 0.1 µM | > 90% | 0.1 to 0.5 µM
8 | Cc1ncsc1-c1ccc(CNC(=O)[C@@H]2C[C@@H](O)CN2C(=O)[C@@H](NC(=O)C[C@H]2CC[C@H](N3CCC(n4cc(-c5cc(-c6ccccc6O)nnc5N)cn4)CC3)CC2)C(C)(C)C)cc1 [I-328] | > 90% | < 0.1 µM | > 90% | 0.1 to 0.5 µM
9 | Cc1ncsc1-c1ccc(CNC(=O)[C@@H]2C[C@@H](O)CN2C(=O)[C@@H](NC(=O)C[C@H]2CC[C@H](c3nccc(N4C5CCC4CN(c4cc(-c6ccccc6O)nnc4N)C5)n3)CC2)C(C)(C)C)cc1 [I-364] | > 90% | < 0.1 µM | > 90% | 0.1 to 0.5 µM
10 | Cc1ncsc1-c1ccc(CNC(=O)[C@@H]2C[C@@H](O)CN2C(=O)[C@@H](NC(=O)CCCCN2CCC(CN3CCC(Cn4cc(-c5cc(-c6ccccc6O)nnc5N)cn4)CC3)CC2)C(C)(C)C)cc1 [I-351] | < 50% | > 1 µM | < 50% | > 1 µM
11 | Cc1ncsc1-c1ccc(CNC(=O)[C@@H]2C[C@@H](O)CN2C(=O)[C@@H](NC(=O)N[C@H]2CC[C@@H](c3cnc(N4C5CCC4CN(c4cc(-c6ccccc6O)nnc4N)C5)nc3)CC2)C(C)(C)C)cc1 [I-334] | > 90% | < 0.1 µM | 70 to 90% | 0.501 to 1 µM
12 | Cc1ncsc1-c1ccc(CNC(=O)[C@@H]2C[C@@H](O)CN2C(=O)[C@@H](NC(=O)C[C@H]2CC[C@H](c3cnc(N4C5CCC4CN(c4cc(-c6ccccc6O)nnc4N)C5)nc3)CC2)C(C)(C)C)cc1 [I-332] | > 90% | < 0.1 µM | > 90% | < 0.1 µM
13 | Cn1c(=O)n(C2CCC(=O)NC2=O)c2ccc(CCCN3CCC(c4nccc(N5C6CCC5CN(c5cc(-c7ccccc7O)nnc5N)C6)n4)CC3)cc21 (centres unmarked) [I-278] | > 90% | < 0.1 µM | > 90% | < 0.1 µM
14 | Cc1ncsc1-c1ccc(CNC(=O)[C@@H]2C[C@@H](O)CN2C(=O)[C@@H](NC(=O)c2ccc(-c3ccc(CN4CCC(Cn5cc(-c6cc(-c7ccccc7O)nnc6N)cn5)CC4)cc3)cc2)C(C)(C)C)cc1 [I-507] | > 90% | < 0.1 µM | > 90% | < 0.1 µM
15 | Nc1nnc(-c2ccccc2O)cc1-c1cnn(C2CCN([C@H]3CC[C@H](CNc4ccc5c(c4)C(=O)N(C4CCC(=O)NC4=O)C5=O)CC3)CC2)c1 (some centres unmarked) [I-325, 5-((((1r,4r)-4-(4-(4-(3-amino-6-(2-hydroxyphenyl)pyridazin-4-yl)-1H-pyrazol-1-yl)piperidin-1-yl)cyclohexyl)methyl)amino)-2-(2,6-dioxopiperidin-3-yl)isoindoline-1,3-dione] | 70 to 90% | < 0.1 µM | 70 to 90% | < 0.1 µM
16 | Cc1ncsc1-c1ccc(CNC(=O)[C@@H]2C[C@@H](O)CN2C(=O)[C@@H](NC(=O)CC2CC(N3CCC(c4cnc(N5C6CCC5CN(c5cc(-c7ccccc7O)nnc5N)C6)nc4)CC3)C2)C(C)(C)C)cc1 (some centres unmarked) [I-512] | < 50% | > 1 µM | 70 to 90% | 0.1 to 0.5 µM
17 | COc1ccccc1-c1cc(N2CC3CCC(C2)N3c2ncc([C@H]3CC[C@@H](CC(=O)N[C@H](C(=O)N4C[C@H](O)C[C@H]4C(=O)NCc4ccc(-c5scnc5C)cc4)C(C)(C)C)CC3)cn2)c(N)nn1 [I-331] | > 90% | < 0.1 µM | > 90% | 0.1 to 0.5 µM
18 | Cc1cc(-c2scnc2C)ccc1CNC(=O)[C@@H]1C[C@@H](O)CN1C(=O)[C@@H](NC(=O)CN1CCC(c2cnc(N3C4CCC3CN(c3cc(-c5ccccc5O)nnc3N)C4)nc2)CC1)C(C)(C)C [I-521] | > 90% | 0.1 to 0.5 µM | > 90% | 0.1 to 0.5 µM
19 | Cc1ncsc1-c1ccc(CNC(=O)[C@@H]2C[C@@H](O)CN2C(=O)[C@@H](NC(=O)[C@@H]2CCN(Cc3cnc(N4C5CCC4CN(c4cc(-c6ccccc6O)nnc4N)C5)nc3)C2)C(C)(C)C)cc1 [I-386, (2S,4R)-1-((2S)-2-((3R)-1-((2-(3-(3-amino-6-(2-hydroxyphenyl)pyridazin-4-yl)-3,8-diazabicyclo[3.2.1]octan-8-yl)pyrimidin-5-yl)methyl)pyrrolidine-3-carboxamido)-3,3-dimethylbutanoyl)-4-hydroxy-N-(4-(4-methylthiazol-5-yl)benzyl)pyrrolidine-2-carboxamide] | > 90% | 0.1 to 0.5 µM | 50 to 70% | 0.501 to 1 µM
20 | Cc1ncsc1-c1ccc(CNC(=O)[C@@H]2C[C@@H](N)CN2C(=O)[C@@H](NC(=O)CCCNCc2ccc(C#Cc3cc(NC(=O)Nc4cc(F)ncc4CO)ccn3)cc2)C(C)(C)C)cc1 [I-492] | < 50% | > 1 µM | < 50% | > 1 µM
21 | Cc1ncsc1-c1ccc(CNC(=O)[C@@H]2C[C@@H](O)CN2C(=O)[C@@H](NC(=O)[C@H]2CC[C@@H](c3nccc(N4C5CCC4CN(c4cc(-c6ccccc6O)nnc4N)C5)n3)CC2)C(C)(C)C)cc1 [I-362] | > 90% | < 0.1 µM | 70 to 90% | 0.501 to 1 µM
22 | Cc1ncsc1-c1ccc(CNC(=O)[C@@H]2C[C@@H](O)CN2C(=O)[C@@H](NC(=O)CCCCN2CCC(C(=O)N3CCC(Cn4cc(-c5cc(-c6ccccc6O)nnc5N)cn4)CC3)CC2)C(C)(C)C)cc1 [I-352] | < 50% | > 1 µM | < 50% | > 1 µM
23 | Cc1ncsc1-c1ccc(CNC(=O)[C@@H]2C[C@@H](O)CN2C(=O)[C@@H](NC(=O)CCCN2CCCC(n3cc(-c4cc(-c5ccccc5O)nnc4N)cn3)C2)C(C)(C)C)cc1 (some centres unmarked) [I-454] | < 50% | > 1 µM | < 50% | > 1 µM
24 | Cc1ncsc1-c1ccc(CNC(=O)[C@@H]2C[C@@H](O)CN2C(=O)[C@@H](NC(=O)Cc2ccc(-c3ccc(N4CCC(Cn5cc(-c6cc(-c7ccccc7O)nnc6N)cn5)CC4)cc3)cc2)C(C)(C)C)cc1 [I-508] | < 50% | > 1 µM | < 50% | > 1 µM
25 | Cc1cc(CC(=O)N[C@H](C(=O)N2C[C@H](O)C[C@H]2C(=O)NCc2ccc(-c3scnc3C)cc2)C(C)(C)C)ccc1-c1cnc(N2C3CCC2CN(c2cc(-c4ccccc4O)nnc2N)C3)nc1 [I-345] | > 90% | < 0.1 µM | > 90% | < 0.1 µM
26 | Cc1ncsc1-c1ccc(CNC(=O)[C@@H]2C[C@@H](O)CN2C(=O)[C@@H](NC(=O)CCCCN2CCC(c3cnc(N4C5CCC4CN(c4cc(-c6ccccc6O)nnc4N)C5)nc3)CC2)C(C)(C)C)cc1 [I-383] | > 90% | > 1 µM | < 50% | > 1 µM
